From ChEMBL document CHEMBL5223137, “Mapping Ligand Interactions of Bromodomains BRD4 and ATAD2 with FragLites and PepLites─Halogenated Probes of Druglike and Peptide-like Molecular Interactions” (J Med Chem, 2022)

These compounds were tested against T1, ATPase family AAA domain-containing protein 2 (Homo sapiens, UniProt Q6PL18) (assay: Inhibition of His-6 tagged recombinant human ATAD2 (981 to 1108 residues) expressed in Escherichia coli BL21 (DE3) rosetta cells by HTRF assay).
T1 sequence (Q6PL18 whole entry): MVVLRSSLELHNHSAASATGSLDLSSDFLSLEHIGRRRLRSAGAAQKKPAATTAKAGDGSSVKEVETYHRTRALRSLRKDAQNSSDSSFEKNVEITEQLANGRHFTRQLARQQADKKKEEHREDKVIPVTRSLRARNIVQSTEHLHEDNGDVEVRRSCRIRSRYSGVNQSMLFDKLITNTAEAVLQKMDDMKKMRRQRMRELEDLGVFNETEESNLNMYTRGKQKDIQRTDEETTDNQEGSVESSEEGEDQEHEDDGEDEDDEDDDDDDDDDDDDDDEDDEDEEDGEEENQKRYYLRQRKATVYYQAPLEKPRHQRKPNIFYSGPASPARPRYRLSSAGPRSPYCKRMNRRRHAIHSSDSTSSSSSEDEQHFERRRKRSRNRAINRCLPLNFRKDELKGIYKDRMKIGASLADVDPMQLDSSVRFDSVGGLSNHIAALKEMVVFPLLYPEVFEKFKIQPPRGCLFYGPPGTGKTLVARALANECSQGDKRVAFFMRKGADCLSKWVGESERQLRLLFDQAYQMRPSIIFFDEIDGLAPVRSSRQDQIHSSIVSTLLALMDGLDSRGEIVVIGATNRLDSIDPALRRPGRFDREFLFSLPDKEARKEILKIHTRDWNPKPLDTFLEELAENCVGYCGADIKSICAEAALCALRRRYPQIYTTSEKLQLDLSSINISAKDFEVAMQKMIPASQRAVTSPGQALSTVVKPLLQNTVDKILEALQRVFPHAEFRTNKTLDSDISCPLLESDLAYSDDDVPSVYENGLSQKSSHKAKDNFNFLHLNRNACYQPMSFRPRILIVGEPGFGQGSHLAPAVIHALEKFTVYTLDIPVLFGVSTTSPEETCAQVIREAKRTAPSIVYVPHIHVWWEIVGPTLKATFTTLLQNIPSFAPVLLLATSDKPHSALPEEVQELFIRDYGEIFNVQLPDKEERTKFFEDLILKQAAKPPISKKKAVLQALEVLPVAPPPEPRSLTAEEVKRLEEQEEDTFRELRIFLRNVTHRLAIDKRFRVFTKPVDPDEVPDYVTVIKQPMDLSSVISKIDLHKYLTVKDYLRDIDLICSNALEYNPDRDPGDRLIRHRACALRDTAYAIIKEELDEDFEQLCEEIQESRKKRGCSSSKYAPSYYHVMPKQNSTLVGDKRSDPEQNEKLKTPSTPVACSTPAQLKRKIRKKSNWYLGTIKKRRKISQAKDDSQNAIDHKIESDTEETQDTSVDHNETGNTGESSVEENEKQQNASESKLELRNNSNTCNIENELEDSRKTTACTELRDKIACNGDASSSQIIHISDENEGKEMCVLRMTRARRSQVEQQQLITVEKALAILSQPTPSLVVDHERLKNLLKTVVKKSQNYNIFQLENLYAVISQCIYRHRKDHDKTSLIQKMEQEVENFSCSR

Row | IC50 [µM] | SMILES
1 | 822 | CN1CCNc2c1ccn(C)c2=O
2 | 377 | Cn1cc(Br)cc(N)c1=O
3 | 55 | Cn1ccc(NCc2ccccn2)c(N)c1=O

Row | SMILES | IC50 [µM]
4 | Cn1cccc(NCC2CCNCC2)c1=O | 543
